Experimental data: patent publication US8304443B2, “Indazole derivatives” (Asahi Kasei Pharma Corporation, priority 2008, dated 2012)
≈ marks a conversion by molar mass, not a printed value.

Experiments:
[1] = molecular target: T1, human β3 adrenergic receptor (Homo sapiens, UniProt P13945); test: Test example 1-B: human β3 adrenergic receptor agonist activity (cAMP-Screen, 96-well); type: cell-based; settings: for Emax: 0.5 h, read-out: β3 receptor I.A.; for EC50: Table 4, Test example 1-B, CHO cells with human β3 gene, cAMP
T1 construct: used as a probe to obtain the full length human β3 gene from a human genomic library (Clonetech); expressed in transfected cells; host or cells: CHO (Chinese hamster ovary) cells, pcDNA3, geneticin-selected
Experimental: Human β3 adrenergic receptor agonist activity is determined using CHO (Chinese hamster ovary) cells transfected with pcDNA3 (Invitrogen) to which human β3 gene has been inserted. […] This human β3 cDNA fragment is used as a probe to obtain the full length human β3 gene from a human genomic library (Clonetech). The above cells are cultured in a Ham's F-12 medium containing 10% fetal bovine serum and 400 μg/mL geneticin (Invitrogen). After seeding these cells into a 96-well plate (2×10^4 cells/well) and culturing them for about 20 hours, they are allowed to stand in a serum-free Ham's F-12 medium (80 μL) for 15 minutes. The test compound is first dissolved in DMSO, serially diluted with Ham's F-12 comprising 100 mmol/L HEPES and 1 mmol/L isobutylmethylxanthine, and then 20 μL of the solution is added to the cells. After the cells are cultured for 30 minutes, the medium is removed, followed by addition of assay/lysis buffer (0.1 ml) included in cAMP-Screen Kit (manufactured by Applied Biosystems). The cells are incubated for 30 minutes at 37° C. The resulting cell lysate is determined to cAMP quantitation by using cAMP-Screen kit described above.

[2] = molecular target: T2, human β1 adrenergic receptor (Homo sapiens, UniProt P08588); test: Test example 2-B: human β1 adrenergic receptor agonist activity; type: cell-based; settings: 0.5 h; read-out: β1 receptor I.A.
T2 construct: expressed in transfected cells; host or cells: CHO (Chinese hamster ovary) cells, pcDNA3

[3] = molecular target: T3, human β2 adrenergic receptor (Homo sapiens, UniProt P07550); test: Test example 3-B: human β2 adrenergic receptor agonist activity; type: cell-based; settings: read-out: β2 receptor I.A.
T3 construct: expressed in transfected cells; host or cells: CHO (Chinese hamster ovary) cells, pcDNA3

[4] = system: rat under pentobarbital anesthesia; test: Test example 9: effect on blood pressure and heart rate of a rat under pentobarbital anesthesia; type: in vivo; settings: male SD rat, 3 mg/kg intravenous bolus; greatest change of mean blood pressure relative to before administration; mean ± standard deviation
Experimental: After measuring blood pressure and heart rate of a rat under pentobarbital anesthesia, an effect of intravenous bolus administration of a test compound on blood pressure and heart rate can be determined. To a male SD rat (Japan SLC Inc.), sodium pentobarbital (Tokyo Chemical Industry Co., Ltd.) is intraperitoneally administered for induction of anesthesia (50 mg/kg). As maintenance anesthetics, sodium pentobarbital is subcutaneously administered (25 mg/kg). Left femoral vein is exposed and stripped, and then a polyethylene tube SP10 (connected to a three-way stopcock via ¼ vein needle) which has been filled with physiological saline is inserted and left in the vein.
Left medial femoral region is cut to expose and strip the femoral artery, and then a polyethylene tube (SP31, connected to a three-way stopcock via 22 G injection needle by TERUMO Corporation) which has been filled with heparin physiological saline is inserted and connected to a pressure transducer. Blood pressure is measured from the pressure transducer by using a modified pressure amplifier (AP-641 G, Nihon Kohden Corporation). Heart rate is measured by using the Heart rate Counter (AT-601 g, Nihon Kohden Corporation) while having the pulse wave of the blood pressure as a trigger. The blood pressure, mean blood pressure and heart rate are transmitted to the data recorder for recordation. In addition, the mean blood pressure is recorded using a modified pressure amplifier (AP-641 G) according to the equation of {diastolic blood pressure+(systolic blood pressure−diastolic blood pressure)/3}.
Blood pressure and heart rate measurement is started, and after confirming that each value remains almost constant, the test compound (3 mg/kg) is administered to the left femoral vein for 30 seconds. Specifically, the test compound with 3 mg/mL concentration is bolus administered at the administration dose of 1 mL/kg. Relative value (%) at each time point compared to the mean blood pressure and the heart rate before the administration is obtained for each individual. […]

[5] = Test example 10: saturation solubility in pure water; type: physicochemical; settings: thermodynamic from solid, room temperature, shaken 1 hour
Experimental: Test compound is prepared to saturation state in pure water. The resulting solution is shaken at room temperature for 1 hour. To a filter tube, the entire solution obtained after the shaking is transferred and is subjected to centrifugal filtration at room temperature. The filtrate is analyzed by HPLC, and by using a calibration curve, saturation solubility of the test compound is obtained from the peak area value.
(§1) Standard solution is prepared by precisely weighing each test compound and fully dissolving it in pure water. Calibration curve is established by having the concentration of the standard solution as a horizontal axis and the HPLC area value at the corresponding concentration as a vertical axis.
(§2) As a separation column, YMC-Pack C18 (4.6 mm×150 mm, manufactured by YMC) is used. Detection is made at UV-254 nm and the temperature inside the column is 40° C. Condition for elution is as follows; with flow rate of 1 ml/minute, solution A as a solvent=water [comprising 0.1% (v/v) acetic acid] and solution B=acetonitrile are used, and from minute 0 to minute 20, 5 to 98% (v/v) linear gradient of solution B is applied, followed by elution with 98% of solution B until minute 25 and elution with 5% of solution B from minute 25.01 to minute 35.

[6] = Test example 11: solubility test in hydrochloric acid buffer solution having pH 1.2; type: physicochemical; settings: 37 °C, pH 1.2, simulated gastric fluid, thermodynamic from solid, pH 1.2, 37° C., prepared at 1000 μg/mL
Experimental: (§3) 500 μg of the test compound is precisely weighed, and then added with hydrochloric acid buffer solution having pH 1.2 until the concentration of 1000 μg/mL is obtained. The […] is shaken at 37° C. for 1 hour. To a filter tube, the entire solution obtained after the shaking is transferred and is subjected to centrifugal filtration at room temperature. The filtrate is analyzed by HPLC, and by using a calibration curve, saturation solubility of the test compound is obtained from the peak area value.
Standard solution is prepared by precisely weighing 500 μg of the test compound and dissolving it DMSO to obtain the concentration of 1 mg/mL.
as §2

[7] = Test example 12: solubility test in physiological saline; type: physicochemical; settings: saline or isotonic, thermodynamic from solid, 37° C., prepared at 1000 μg/mL
Experimental: as §3
Except that the hydrochloric acid buffer solution having pH 1.2 is replaced with physiological saline, the test is carried out in the same method as Test example 11 to obtain the solubility of the test compound.

[8] = Test example 13: stability test in pure water; type: physicochemical; settings: for stability in pure water (finding): up to 48 hours
Experimental: Test compound is prepared to saturation state in pure water. The resulting solution is shaken at room temperature for 1 hour. To a filter tube, the entire solution obtained after the shaking is transferred and is subjected to centrifugal filtration at room temperature. The filtrate is analyzed by HPLC right after the filtration, 24 hours, and 48 hours after the filtration. Then, by using a calibration curve, stability of the test compound is obtained from the peak area value.
as §1, §2

T1 sequence (P13945 whole entry): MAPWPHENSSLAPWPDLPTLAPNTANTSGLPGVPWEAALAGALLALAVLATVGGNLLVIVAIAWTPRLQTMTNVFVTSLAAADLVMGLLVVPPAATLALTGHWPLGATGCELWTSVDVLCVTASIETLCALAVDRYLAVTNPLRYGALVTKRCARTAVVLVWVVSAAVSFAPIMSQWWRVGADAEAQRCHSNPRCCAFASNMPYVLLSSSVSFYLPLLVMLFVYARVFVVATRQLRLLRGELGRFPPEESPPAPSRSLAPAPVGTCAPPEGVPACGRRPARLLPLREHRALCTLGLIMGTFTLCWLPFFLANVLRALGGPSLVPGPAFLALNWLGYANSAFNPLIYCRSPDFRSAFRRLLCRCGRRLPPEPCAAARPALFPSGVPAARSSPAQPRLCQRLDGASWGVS
T2 sequence (P08588 whole entry): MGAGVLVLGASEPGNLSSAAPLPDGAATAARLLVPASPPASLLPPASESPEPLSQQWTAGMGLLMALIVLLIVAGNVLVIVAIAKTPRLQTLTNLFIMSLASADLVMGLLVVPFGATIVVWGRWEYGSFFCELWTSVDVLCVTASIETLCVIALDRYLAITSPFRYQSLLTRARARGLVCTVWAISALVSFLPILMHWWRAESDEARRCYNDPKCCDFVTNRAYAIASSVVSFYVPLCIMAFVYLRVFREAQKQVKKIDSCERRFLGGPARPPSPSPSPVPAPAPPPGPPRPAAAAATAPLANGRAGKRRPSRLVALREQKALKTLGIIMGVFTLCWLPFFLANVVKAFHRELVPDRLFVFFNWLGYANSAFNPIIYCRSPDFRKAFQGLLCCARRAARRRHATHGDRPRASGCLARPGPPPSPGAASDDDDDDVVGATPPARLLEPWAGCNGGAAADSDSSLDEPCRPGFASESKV
T3 sequence (P07550 whole entry): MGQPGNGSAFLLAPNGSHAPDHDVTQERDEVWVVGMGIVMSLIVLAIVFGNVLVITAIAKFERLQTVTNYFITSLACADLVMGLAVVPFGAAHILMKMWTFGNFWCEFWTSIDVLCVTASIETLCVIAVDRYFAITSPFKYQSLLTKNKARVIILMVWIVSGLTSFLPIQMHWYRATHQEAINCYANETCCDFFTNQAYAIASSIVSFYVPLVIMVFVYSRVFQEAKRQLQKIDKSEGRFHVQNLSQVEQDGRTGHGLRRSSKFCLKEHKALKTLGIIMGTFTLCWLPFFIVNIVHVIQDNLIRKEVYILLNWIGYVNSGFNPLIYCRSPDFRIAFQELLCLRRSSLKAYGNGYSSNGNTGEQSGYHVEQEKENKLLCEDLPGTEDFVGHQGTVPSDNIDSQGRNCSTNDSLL

Emax [1] [%]	EC50 [1] [µM]	Emax [2] [%]	Emax [3] [%]	solubility at 1 h [5] [µg/mL]	solubility at 1 h [6] [µg/mL]	solubility at 1 h [7] [µg/mL]	HPLC area percentage at 24 hours after the filtration [8] [%]	HPLC area percentage at 48 hours after the filtration [8] [%]	HPLC area percentage right after the filtration [8] [%]	stability in pure water (finding) [8]	SMILES	increase in MBP (%) [4] [%]
77	0.015	10	6.3	55000 (≈ 128000 µM)	982 (≈ 2280 µM)	999 (≈ 2320 µM)	95.6	95.6	95.7	stable	CS(=O)(=O)Nc1cccc([C@@H](O)CNCCOc2ccc3c(C4CC4)n[nH]c3c2)c1 [Example 1, (R)—N-(3-(1-Hydroxy-2-(2-(3-cyclopropylindazol-6-yloxy)ethylamino)ethyl)phenyl)methanesulfonamide]	2.7 ± 0.5
68	0.056	9.9	3.8	53000 (≈ 119000 µM)	> 1000	999 (≈ 2250 µM)	95.2	95.0	95.2	stable	CS(=O)(=O)Nc1cccc([C@@H](O)CNCCOc2ccc3c(C4CCC4)n[nH]c3c2)c1 [Example 2, (R)—N-(3-(1-Hydroxy-2-(2-(3-cyclobutylindazol-6-yloxy)ethylamino)ethyl)phenyl)methanesulfonamide]	4.0 ± 2.6
